Experimental data reported in the NIST ThermoML archive (doi:10.1021/je200371n).

Settings: Gas

S [hydrogen sulfide]
Mass density=0.74 kg/m3
Settings	viscosity [mPa·s]
291.61 K	0.01186
292.3 K	0.01186
292.46 K	0.01187
292.77 K	0.01188
296.89 K	0.01207
297.01 K	0.01206
323.94 K	0.01319
323.96 K	0.01318
350.47 K	0.01429
350.59 K	0.0143
378.01 K	0.01543
378.19 K	0.01544
405.76 K	0.01656
405.86 K	0.01657
433.66 K	0.01769
433.81 K	0.0177
461.72 K	0.01881
461.92 K	0.01882
490.09 K	0.01993
490.2 K	0.01992
518.68 K	0.021
518.75 K	0.021
542.48 K	0.0219
542.61 K	0.0219
565.19 K	0.02274
565.29 K	0.02275
593.95 K	0.02379
594.02 K	0.02379
623.07 K	0.02482
623.19 K	0.02482
652.3 K	0.02584
652.32 K	0.02584
681.36 K	0.02682
682.03 K	0.02684

C [methane]
Settings	viscosity [mPa·s]
289.05 K, Mass density=0.498 kg/m3	0.01081
290.41 K, Mass density=0.498 kg/m3	0.01083
291.93 K, Mass density=0.344 kg/m3	0.01089
292.96 K, Mass density=0.344 kg/m3	0.01092
296.43 K, Mass density=0.498 kg/m3	0.01103
296.57 K, Mass density=0.498 kg/m3	0.01105
297.08 K, Mass density=0.344 kg/m3	0.01106
323.43 K, Mass density=0.498 kg/m3	0.01189
323.86 K, Mass density=0.344 kg/m3	0.01191
350.55 K, Mass density=0.344 kg/m3	0.01273
350.64 K, Mass density=0.498 kg/m3	0.01272
378.15 K, Mass density=0.344 kg/m3	0.01356
378.25 K, Mass density=0.498 kg/m3	0.01355
405.88 K, Mass density=0.344 kg/m3	0.01436
406.03 K, Mass density=0.498 kg/m3	0.01436
433.83 K, Mass density=0.344 kg/m3	0.01514
434.02 K, Mass density=0.498 kg/m3	0.01514
461.75 K, Mass density=0.498 kg/m3	0.0159
461.85 K, Mass density=0.344 kg/m3	0.01591
490.13 K, Mass density=0.344 kg/m3	0.01666
490.15 K, Mass density=0.498 kg/m3	0.01665
518.8 K, Mass density=0.498 kg/m3	0.0174
518.83 K, Mass density=0.344 kg/m3	0.01739
542.36 K, Mass density=0.498 kg/m3	0.01798
542.6 K, Mass density=0.344 kg/m3	0.01799
565.1 K, Mass density=0.498 kg/m3	0.01854
565.38 K, Mass density=0.344 kg/m3	0.01856
593.84 K, Mass density=0.498 kg/m3	0.01924
594.08 K, Mass density=0.344 kg/m3	0.01925
623.05 K, Mass density=0.498 kg/m3	0.01993
623.33 K, Mass density=0.344 kg/m3	0.01995
652.07 K, Mass density=0.498 kg/m3	0.02061
652.41 K, Mass density=0.344 kg/m3	0.02062
681.93 K, Mass density=0.498 kg/m3	0.02127
682.14 K, Mass density=0.344 kg/m3	0.0213
